Assay results: patent EP4745137A1 (Gluetacs Therapeutics (Shanghai) Co., Ltd., priority 2023, dated 2025)

What was measured:
WEE1 = biological target: T1, WEE1 (Homo sapiens, UniProt P30291+Q96SW2); experiment: Western-blot assay of substrate protein degradation in hPBMCs, WEE1; format: cell-based; details: 24 hours of compound treatment, compounds tested at 50 nM and 500 nM (concentration of the table not stated)
T1 construct: endogenous in cells; host or cells: hPBMCs (Milecell Biotechnologies)

IKZF1 = biological target: T2, IKZF1 (Homo sapiens, UniProt Q13422+Q96SW2); experiment: Western-blot assay of substrate protein degradation in hPBMCs, IKZF1; format: cell-based; details: 24 hours of compound treatment, compounds tested at 50 nM and 500 nM (concentration of the table not stated)
T2 construct: endogenous in cells; host or cells: hPBMCs (Milecell Biotechnologies)

IKZF2 = biological target: T3, IKZF2 (Homo sapiens, UniProt Q96SW2+Q9UKS7); experiment: Western-blot assay of substrate protein degradation in hPBMCs, IKZF2; format: cell-based; details: 24 hours of compound treatment, compounds tested at 50 nM and 500 nM (concentration of the table not stated)
T3 construct: endogenous in cells; host or cells: hPBMCs (Milecell Biotechnologies)

IKZF3 = biological target: T4, IKZF3 (Homo sapiens, UniProt Q96SW2+Q9UKT9); experiment: Western-blot assay of substrate protein degradation in hPBMCs, IKZF3; format: cell-based; details: 24 hours of compound treatment, compounds tested at 50 nM and 500 nM (concentration of the table not stated)
T4 construct: endogenous in cells; host or cells: hPBMCs (Milecell Biotechnologies)

CK1α = biological target: T5, CK1α (Homo sapiens, UniProt P48729+Q96SW2); experiment: Western-blot assay of substrate protein degradation in hPBMCs, CK1α; format: cell-based; details: 24 hours of compound treatment, compounds tested at 50 nM and 500 nM (concentration of the table not stated)
T5 construct: endogenous in cells; host or cells: hPBMCs (Milecell Biotechnologies)

GSPT1 = biological target: T6, GSPT1 (Homo sapiens, UniProt P15170+Q96SW2); experiment: Western-blot assay of substrate protein degradation in hPBMCs, GSPT1; format: cell-based; details: 24 hours of compound treatment, compounds tested at 50 nM and 500 nM (concentration of the table not stated)
T6 construct: endogenous in cells; host or cells: hPBMCs (Milecell Biotechnologies)

[1] = biological target: T7, human Cereblon WT GST-tagged protein (Homo sapiens, UniProt Q96SW2); experiment: CRBN-binding affinity by HTRF (CEREBLON BINDING kit); details: HTRF inhibitory activity, CEREBLON BINDING kit; read-out: HTRF IC50
T7 construct: purchased CISBIO 64BDCRBNPEH

SR = experiment: Tumor cell proliferation inhibition (CellTiter-Meiluncell Luminescent Cell Viability Assay), SR; details: Homo sapiens, 96 h, read-out: inhibitory activity (IC50, nM) against tumor cells proliferation, SR
Vcap = experiment: Tumor cell proliferation inhibition (CellTiter-Meiluncell Luminescent Cell Viability Assay), Vcap; details: Homo sapiens, 96 h, read-out: inhibitory activity (IC50, nM) against tumor cells proliferation, Vcap
Method: (§1) The tumor cells used herein were cultured in a cell culture medium listed in table 2 at 37°C in an incubator with 5% CO2. Prior to experimentation, all cell lines used were correctly identified by STR profiling, and tested negative for mycoplasma contamination using a mycoplasma detection kit through routine screenings.
(§2) On the following day, the test compounds of the present disclosure were subjected to serial dilution. […] Subsequently, 0.5 µL of the test compound dilution was transferred into the 96-well plate containing the cells, with each well containing 100 µL of cell culture medium. […] Into the 96-well plate, the diluted test compounds and corresponding detection reagents were added, resulting in final test compound concentrations of 500 nM and 10 nM, respectively. The experimental procedure is described below using the diluted 2 µM test compound as an example.
(§3) After the cells were treated with the compounds of the present disclosure for a specified period (the treatment durations were shown in Table 3), the cell viability assay reagent was added to the culture medium according to the kit's instructions to determine cell viability. […] All controls were treated using the same procedure as the compounds of the present disclosure. The growth inhibition curves for the compounds of the present disclosure were plotted using Prism GraphPad software, and the IC50 values were calculated therefrom.

MM.1R = experiment: Tumor cell proliferation inhibition (CellTiter-Meiluncell Luminescent Cell Viability Assay), MM.1R; details: Homo sapiens, 96 h, read-out: inhibitory activity (IC50, nM) against tumor cells proliferation, MM.1R
SW620 = experiment: Tumor cell proliferation inhibition (CellTiter-Meiluncell Luminescent Cell Viability Assay), SW620; details: Homo sapiens, SW-620, 96 h, read-out: inhibitory activity (IC50, nM) against tumor cells proliferation, SW620
Method: as §1, §2, §3

Jurkat = experiment: Tumor cell proliferation inhibition (CellTiter-Meiluncell Luminescent Cell Viability Assay), Jurkat; details: Homo sapiens, 96 h, read-out: inhibitory activity (IC50, nM) against tumor cells proliferation, Jurkat
Method: as §1, §2, §3

CAL-62 = experiment: Tumor cell proliferation inhibition (CellTiter-Meiluncell Luminescent Cell Viability Assay), CAL-62; details: Homo sapiens, CAL-62, 96 h, read-out: inhibitory activity (IC50, nM) against tumor cells proliferation, CAL-62
[2] = system: Human acute T lymphocytic leukemia cells (Molt-4); experiment: Tumor cell proliferation inhibition (CellTiter-Meiluncell Luminescent Cell Viability Assay), Molt-4; details: MOLT-4, 96 h, read-out: inhibitory activity (IC50, nM) against tumor cells proliferation, Molt 4
MGC803 = experiment: Tumor cell proliferation inhibition (CellTiter-Meiluncell Luminescent Cell Viability Assay), MGC803; details: Homo sapiens, MGC-803, 96 h, read-out: inhibitory activity (IC50, nM) against tumor cells proliferation, MGC803
CCRF-CEM = experiment: Tumor cell proliferation inhibition (CellTiter-Meiluncell Luminescent Cell Viability Assay), CCRF-CEM; details: Homo sapiens, 96 h, read-out: inhibitory activity (IC50, nM) against tumor cells proliferation, CCRF-CEM
NCI-H1975 = experiment: Tumor cell proliferation inhibition (CellTiter-Meiluncell Luminescent Cell Viability Assay), NCI-H1975; details: Homo sapiens, NCI-H1975, 96 h, read-out: inhibitory activity (IC50, nM) against tumor cells proliferation, H1975
[3] = system: Human breast cancer cells (MDA-MB-231); experiment: Tumor cell proliferation inhibition (CellTiter-Meiluncell Luminescent Cell Viability Assay), MDA-MB-231; details: MDA-MB-231, 96 h, read-out: inhibitory activity (IC50, nM) against tumor cells proliferation, MDA-MB-231

T4 sequence (Q9UKT9 whole entry): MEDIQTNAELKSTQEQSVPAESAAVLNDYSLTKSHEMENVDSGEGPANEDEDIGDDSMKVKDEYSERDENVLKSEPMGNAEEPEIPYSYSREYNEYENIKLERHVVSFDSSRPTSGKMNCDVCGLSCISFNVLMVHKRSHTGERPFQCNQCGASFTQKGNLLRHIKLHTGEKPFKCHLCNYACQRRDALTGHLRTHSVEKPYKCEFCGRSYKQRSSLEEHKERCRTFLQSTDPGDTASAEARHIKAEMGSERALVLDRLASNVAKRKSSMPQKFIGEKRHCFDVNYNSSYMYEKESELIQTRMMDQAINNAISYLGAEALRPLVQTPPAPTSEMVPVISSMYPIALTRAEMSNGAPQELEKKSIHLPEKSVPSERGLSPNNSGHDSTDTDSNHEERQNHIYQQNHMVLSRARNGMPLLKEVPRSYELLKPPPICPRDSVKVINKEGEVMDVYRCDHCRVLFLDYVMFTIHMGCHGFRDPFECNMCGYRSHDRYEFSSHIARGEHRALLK
T4 sequence (Q96SW2 whole entry): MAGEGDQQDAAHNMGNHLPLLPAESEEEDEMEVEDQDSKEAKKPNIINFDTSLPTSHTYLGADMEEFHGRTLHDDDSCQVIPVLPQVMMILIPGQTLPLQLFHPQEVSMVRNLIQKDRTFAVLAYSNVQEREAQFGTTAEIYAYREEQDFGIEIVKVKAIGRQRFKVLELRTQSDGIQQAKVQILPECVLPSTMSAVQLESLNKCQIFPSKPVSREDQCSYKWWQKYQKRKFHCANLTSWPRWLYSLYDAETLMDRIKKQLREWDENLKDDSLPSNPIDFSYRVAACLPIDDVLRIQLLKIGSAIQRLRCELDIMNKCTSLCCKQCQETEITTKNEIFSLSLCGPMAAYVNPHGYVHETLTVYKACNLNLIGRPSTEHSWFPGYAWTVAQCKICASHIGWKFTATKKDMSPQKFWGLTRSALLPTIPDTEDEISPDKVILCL
T4 sequence (Q16531 whole entry partner): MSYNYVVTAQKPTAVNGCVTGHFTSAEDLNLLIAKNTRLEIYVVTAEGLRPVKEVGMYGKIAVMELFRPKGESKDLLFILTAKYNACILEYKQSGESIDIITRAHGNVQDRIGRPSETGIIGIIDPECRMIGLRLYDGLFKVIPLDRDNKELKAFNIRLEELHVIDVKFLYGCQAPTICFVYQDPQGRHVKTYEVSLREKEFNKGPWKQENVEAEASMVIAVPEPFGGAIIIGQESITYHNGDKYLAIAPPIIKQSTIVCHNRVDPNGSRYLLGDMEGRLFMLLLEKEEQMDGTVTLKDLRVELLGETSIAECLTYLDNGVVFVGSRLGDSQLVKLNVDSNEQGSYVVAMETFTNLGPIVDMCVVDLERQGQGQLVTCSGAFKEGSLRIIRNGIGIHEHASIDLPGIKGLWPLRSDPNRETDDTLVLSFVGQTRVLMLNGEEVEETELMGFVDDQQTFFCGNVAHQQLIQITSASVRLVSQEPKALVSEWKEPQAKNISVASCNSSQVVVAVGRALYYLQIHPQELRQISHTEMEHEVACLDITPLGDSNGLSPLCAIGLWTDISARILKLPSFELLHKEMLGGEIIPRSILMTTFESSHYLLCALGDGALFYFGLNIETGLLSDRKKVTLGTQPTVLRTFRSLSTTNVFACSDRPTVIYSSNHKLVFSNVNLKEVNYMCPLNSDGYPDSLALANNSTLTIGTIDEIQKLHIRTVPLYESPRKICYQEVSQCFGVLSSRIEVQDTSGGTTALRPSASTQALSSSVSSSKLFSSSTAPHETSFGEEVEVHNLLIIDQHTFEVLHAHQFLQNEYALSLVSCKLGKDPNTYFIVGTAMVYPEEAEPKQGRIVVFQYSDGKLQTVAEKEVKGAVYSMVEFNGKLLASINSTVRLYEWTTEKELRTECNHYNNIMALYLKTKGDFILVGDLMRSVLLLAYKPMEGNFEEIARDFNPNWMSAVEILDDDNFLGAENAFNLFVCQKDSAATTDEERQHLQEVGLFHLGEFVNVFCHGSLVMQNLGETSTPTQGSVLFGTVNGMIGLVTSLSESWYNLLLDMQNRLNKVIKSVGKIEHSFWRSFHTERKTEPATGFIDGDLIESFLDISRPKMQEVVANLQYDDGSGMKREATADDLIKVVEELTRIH
T2 sequence (Q13422 whole entry): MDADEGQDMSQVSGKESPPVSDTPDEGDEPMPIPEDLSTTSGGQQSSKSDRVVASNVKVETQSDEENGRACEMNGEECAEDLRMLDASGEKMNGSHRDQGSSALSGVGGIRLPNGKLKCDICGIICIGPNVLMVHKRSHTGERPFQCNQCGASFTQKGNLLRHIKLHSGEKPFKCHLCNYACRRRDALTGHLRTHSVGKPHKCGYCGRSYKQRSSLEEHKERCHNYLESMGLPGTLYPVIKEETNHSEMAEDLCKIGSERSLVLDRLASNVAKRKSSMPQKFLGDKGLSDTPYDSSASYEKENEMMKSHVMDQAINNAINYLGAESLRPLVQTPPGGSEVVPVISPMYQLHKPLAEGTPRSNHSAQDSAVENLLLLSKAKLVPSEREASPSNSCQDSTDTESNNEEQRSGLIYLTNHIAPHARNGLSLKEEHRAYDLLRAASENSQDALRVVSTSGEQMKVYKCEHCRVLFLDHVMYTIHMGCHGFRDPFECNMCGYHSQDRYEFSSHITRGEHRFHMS
T2 sequence (Q96SW2 whole entry): as the sequence (Q96SW2 whole entry) above
T2 sequence (Q16531 whole entry partner): as the sequence (Q16531 whole entry partner) above
T7 sequence (Q96SW2 whole entry): as the sequence (Q96SW2 whole entry) above
T1 sequence (P30291 whole entry): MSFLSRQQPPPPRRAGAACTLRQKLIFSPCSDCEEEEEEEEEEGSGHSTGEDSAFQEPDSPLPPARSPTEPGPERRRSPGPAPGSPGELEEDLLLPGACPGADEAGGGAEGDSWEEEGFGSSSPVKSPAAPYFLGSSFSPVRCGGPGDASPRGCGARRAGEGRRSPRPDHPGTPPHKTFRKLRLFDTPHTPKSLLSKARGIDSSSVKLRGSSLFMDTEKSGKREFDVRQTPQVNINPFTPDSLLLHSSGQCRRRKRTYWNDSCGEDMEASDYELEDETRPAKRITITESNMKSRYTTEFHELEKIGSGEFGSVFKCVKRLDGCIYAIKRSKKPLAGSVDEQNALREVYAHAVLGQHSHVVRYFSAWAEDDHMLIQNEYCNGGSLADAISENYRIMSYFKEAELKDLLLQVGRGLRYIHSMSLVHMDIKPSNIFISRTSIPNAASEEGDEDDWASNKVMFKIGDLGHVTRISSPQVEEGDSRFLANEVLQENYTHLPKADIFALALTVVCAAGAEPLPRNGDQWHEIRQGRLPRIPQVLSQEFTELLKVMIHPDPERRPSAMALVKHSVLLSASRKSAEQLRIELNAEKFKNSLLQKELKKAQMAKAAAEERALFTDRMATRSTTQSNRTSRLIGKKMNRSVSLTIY
T1 sequence (Q96SW2 whole entry): as the sequence (Q96SW2 whole entry) above
T1 sequence (Q16531 whole entry partner): as the sequence (Q16531 whole entry partner) above
T6 sequence (P15170 whole entry): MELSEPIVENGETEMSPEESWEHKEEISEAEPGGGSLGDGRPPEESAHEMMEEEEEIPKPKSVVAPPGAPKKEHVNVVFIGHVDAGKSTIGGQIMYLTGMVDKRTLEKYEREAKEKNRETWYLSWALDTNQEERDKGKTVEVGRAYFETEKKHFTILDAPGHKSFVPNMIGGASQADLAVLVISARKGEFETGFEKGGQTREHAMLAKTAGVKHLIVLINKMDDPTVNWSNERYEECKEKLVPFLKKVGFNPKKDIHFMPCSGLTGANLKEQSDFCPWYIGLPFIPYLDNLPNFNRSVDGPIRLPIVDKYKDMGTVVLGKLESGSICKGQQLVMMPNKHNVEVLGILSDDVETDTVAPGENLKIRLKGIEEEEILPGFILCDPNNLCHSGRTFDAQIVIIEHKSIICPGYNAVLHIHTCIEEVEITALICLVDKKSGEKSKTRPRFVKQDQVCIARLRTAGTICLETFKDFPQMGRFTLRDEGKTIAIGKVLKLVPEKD
T6 sequence (Q96SW2 whole entry): as the sequence (Q96SW2 whole entry) above
T6 sequence (Q16531 whole entry partner): as the sequence (Q16531 whole entry partner) above
T3 sequence (Q9UKS7 whole entry): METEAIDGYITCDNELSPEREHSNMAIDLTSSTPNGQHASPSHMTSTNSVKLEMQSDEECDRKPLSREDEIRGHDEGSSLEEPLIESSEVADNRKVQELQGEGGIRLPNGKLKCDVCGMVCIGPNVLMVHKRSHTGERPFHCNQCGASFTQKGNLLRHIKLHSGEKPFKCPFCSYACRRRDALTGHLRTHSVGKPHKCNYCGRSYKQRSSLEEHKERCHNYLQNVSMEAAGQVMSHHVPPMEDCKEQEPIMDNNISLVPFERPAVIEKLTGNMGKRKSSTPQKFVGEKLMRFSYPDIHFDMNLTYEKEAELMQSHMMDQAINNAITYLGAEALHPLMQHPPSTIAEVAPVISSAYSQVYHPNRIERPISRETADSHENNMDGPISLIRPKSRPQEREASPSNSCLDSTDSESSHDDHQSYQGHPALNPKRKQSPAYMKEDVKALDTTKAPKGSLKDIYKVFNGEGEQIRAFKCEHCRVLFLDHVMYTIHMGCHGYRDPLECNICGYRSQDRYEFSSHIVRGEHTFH
T3 sequence (Q96SW2 whole entry): as the sequence (Q96SW2 whole entry) above
T3 sequence (Q16531 whole entry partner): as the sequence (Q16531 whole entry partner) above

IC50 [1] | IC50 (SR) | IC50 (Vcap) | IC50 (MM.1R) | IC50 (SW620) | IC50 (Jurkat) | IC50 (CAL-62) | IC50 [2] | IC50 (MGC803) | IC50 (CCRF-CEM) | IC50 (NCI-H1975) | IC50 [3] | SMILES | Weel substrate protein remaining % (WEE1) | IKZF 1 substrate protein remaining % (IKZF1) | IKZF2 substrate protein remaining % (IKZF2) | IKZF3 substrate protein remaining % (IKZF3) | CK1a substrate protein remaining % (CK1α) | GSPT1 substrate protein remaining % (GSPT1)
500 to 1000 nM | 100 to 500 nM | 10 to 50 nM | 5 to 10 nM | 50 to 100 nM | 1 to 5 nM | 5 to 10 nM | 10 to 50 nM | 50 to 100 nM | 1 to 5 nM | 50 to 100 nM | 50 to 100 nM | O=C1CCC(N2Cc3cc(CN4CCN(c5ccc(Cl)cn5)CC4)ccc3C2=O)C(=O)N1 (stereo not drawn) [GT-04431, 3-(5-((4-(5-chloropyridin-2-yl)piperazin-1-yl)methyl)-1-oxoisoindolin-2-yl)piperidine-2,6-dione] | A (0% ≤ substrate protein remaining % ≤ 80%) | A (0% ≤ substrate protein remaining % ≤ 80%) | A (0% ≤ substrate protein remaining % ≤ 80%) | A (0% ≤ substrate protein remaining % ≤ 80%) | A (0% ≤ substrate protein remaining % ≤ 80%) | A (0% ≤ substrate protein remaining % ≤ 80%)
500 to 1000 nM | 100 to 500 nM | 10 to 50 nM | 5 to 10 nM | 50 to 100 nM | 1 to 5 nM | 10 to 50 nM | 1 to 5 nM | 50 to 100 nM | 5 to 10 nM | 50 to 100 nM | 100 to 500 nM | O=C1CCC(N2Cc3cc(CN4CCN(c5ccc(Cl)c(Cl)c5)CC4)ccc3C2=O)C(=O)N1 (stereo not drawn) [GT-04437, 3-(5-((4-(3,4-dichlorophenyl)piperazin-1-yl)methyl)-1-oxoisoindolin-2-yl)piperidine-2,6-dione] | A (0% ≤ substrate protein remaining % ≤ 80%) | A (0% ≤ substrate protein remaining % ≤ 80%) | A (0% ≤ substrate protein remaining % ≤ 80%) | A (0% ≤ substrate protein remaining % ≤ 80%) | A (0% ≤ substrate protein remaining % ≤ 80%) | A (0% ≤ substrate protein remaining % ≤ 80%)
500 to 1000 nM | 100 to 500 nM | 10 to 50 nM | 5 to 10 nM | 50 to 100 nM | 1 to 5 nM | 5 to 10 nM | 1 to 5 nM | 100 to 500 nM | 5 to 10 nM | 50 to 100 nM | 100 to 500 nM | O=C1CCC(N2Cc3cc(CN4CCN(c5ccccc5)CC4)ccc3C2=O)C(=O)N1 (stereo not drawn) [GT-04446, 3-(1-oxo-5-((4-phenylpiperazin-1-yl)methyl)isoindolin-2-yl)piperidine-2,6-dione] | A (0% ≤ substrate protein remaining % ≤ 80%) | A (0% ≤ substrate protein remaining % ≤ 80%) | A (0% ≤ substrate protein remaining % ≤ 80%) | A (0% ≤ substrate protein remaining % ≤ 80%) | A (0% ≤ substrate protein remaining % ≤ 80%) | A (0% ≤ substrate protein remaining % ≤ 80%)
500 to 1000 nM | 100 to 500 nM | 10 to 50 nM | 10 to 50 nM | 100 to 500 nM | 5 to 10 nM | 10 to 50 nM | 5 to 10 nM | 100 to 500 nM | 5 to 10 nM | 100 to 500 nM | 100 to 500 nM | O=C1CCC(N2Cc3cc(CN4CCN(c5cccc(F)c5)CC4)ccc3C2=O)C(=O)N1 (stereo not drawn) [GT-04452, 3-(5-((4-(3-fluorophenyl)piperazin-1-yl)methyl)-1-oxoisoindolin-2-yl)piperidine-2,6-dione] | A (0% ≤ substrate protein remaining % ≤ 80%) | B (80%< substrate protein remaining %≤ 100%) | B (80%< substrate protein remaining %≤ 100%) | B (80%< substrate protein remaining %≤ 100%) | A (0% ≤ substrate protein remaining % ≤ 80%) | A (0% ≤ substrate protein remaining % ≤ 80%)
